{"source": "patent US20110136880A1", "about": "“Latrunculin-Based Macrolides and Their Uses” (priority 2009, published 2011)", "key": {"MDA-MB-231 cells": {"tested_on": "MDA-MB-231 cells", "assay": "Cultrex BME cell invasion assay", "format": "cell-based, human", "details": "for fold more active against cell invasion than latrunculin A (compound 1): 0.5 μM", "method": "The anti-invasive activities of compounds 1-14 were measured using a 96 well basement membrane extract (BME) cell invasion assay kit against the highly metastatic MDA-MB-231 cells. This assay employs a simplified Boyden Chamber with a polyethylene terephthalate membrane (8 μm pore size). Cell invasion was quantified using calcein-acetomethylester (calcein-AM). Cells internalize calcein-AM; intracellular esterases then cleave the acetomethylester moiety to generate free calcein. Free calcein fluoresces brightly. This fluorescence may be used to quantify the number of cells that have invaded across the BME. To correlate the anti-invasive activities of the latrunculin A derivatives with their actin-disrupting activities, compounds 1-14 were each tested at non-toxic concentrations. […] Accordingly, all compounds were tested at 0.1, 0.5, and 1.0 μM. Compound 3 killed 17% of MDA-MB-231 cells at 1.0 μM, while the same dose of compound 3 inhibited 95% of MDA-MB-231 cells' invasion. […] The anti-invasive activities of compounds 1-14 are attributed primarily to the inhibition of actin polymerization, not to cell death per se.\nCultrex® Cell Invasion Assay. Anti-invasive activities were measured using Trevigen's Cultrex® Cell Invasion Assay as described in K. Tamilarasan et al., BMC Cell Biol. 2006, 7, 17-30; and P. Borghesani et al., Development. 2002, 6, 1435-1442. About 50 μL of basement membrane extract (BME) coat was added to each well. After incubation for 4 h at 37° C. under 5% CO2, 50,000 MDA-MB-231 cells in 50 μL of serum free RPMI medium were added to each well in the top chamber, along with the test compound at one of several concentrations (0.1, 0.5, 1 μM). About 150 μL of RPMI medium was added to the lower chamber in 10% FBS and penicillin/streptomycin, using fibronectin ([…]) and N-formyl-met-leu-phe (10 nM) as chemoattractants. Cells were allowed to migrate to the lower chamber at 37° C. under 5% CO2. After 24 h, the top and bottom chambers were aspirated and washed with the washing buffer that had been supplied with the kit. About 100 μL of Cell Dissociation Solution/Calcein-AM solution was added to the bottom chamber, and the cells were incubated at 37° C. under CO2 for 1 h. Briefly, the cells internalize calcein-AM, and then the intracellular esterases cleave the AM moiety to generate free calcein. […] The number of cells that had invaded through the BME coat was calculated using a standard curve."}, "[1]": {"tested_on": "microvessel density marker CD31 in endothelial colony forming cells (ECFCs)", "assay": "Angiogenesis inhibition assay (CD31 in ECFCs)", "format": "cell-based", "method": "Effects on Angiogenesis. Angiogenesis inhibition assays were conducted using endothelial colony forming cells (ECFCs). The microvessel density marker CD31 was quantified using confocal laser scanning microscopy and immunohistochemistry."}, "[2]": {"tested_on": "alkaline phosphatase in C2C12 cells", "assay": "Alkaline phosphatase in C2C12 cells (Wnt pathway)", "format": "cell-based", "details": "Mus musculus", "excerpt": "(§1) Effects on Wnt/β-catenin. […] These two compounds affected both alkaline phosphatase and β-catenin levels in C2C12 cells."}, "β-catenin in C2C12 cells": {"tested_on": "β-catenin in C2C12 cells", "assay": "Wnt/β-catenin signaling, β-catenin levels in C2C12 cells", "format": "cell-based", "excerpt": "as §1"}, "MDA-MB-231": {"tested_on": "MDA-MB-231", "assay": "Wound-healing assay", "format": "cell-based, human", "details": "100 nM dose", "method": "Wound-healing assay. MDA-MB-231 cells are plated onto sterile 24-well plates and allowed to form a confluent cell monolayer (>95% confluence) overnight. Wounds are then inflicted on each cell monolayer using a sterile 200 μL pipette tip. Media are removed, and cells are washed twice with PBS and once with fresh serum-free media. Test latrunculin compounds at various concentrations (100 nM-10 μM) in fresh, serum-free media are added to each well and incubated for 24 h under serum-starved conditions. Media are then removed, and the cells are washed, fixed and stained using Diff-Quick™ staining (Dade Behring Diagnostics, Aguada, Puerto Rico). Cells that have migrated across the inflicted wound are counted under the microscope in three or more randomly selected fields (magnification: 400×). All experiments are conducted independently in triplicate replications."}, "[3]": {"tested_on": "prostate cancer cell line PC-3", "assay": "Invasion assay, PC-3", "format": "cell-based, human", "details": "without cytotoxicity"}, "[4]": {"tested_on": "breast, CNS, colon, lung, melanoma, ovarian, and renal cancer cells", "assay": "Antiproliferative testing against 60 cell lines (NSC compounds)", "format": "cell-based"}, "array of kinases": {"tested_on": "array of kinases", "assay": "Kinase profiling", "format": "binding", "details": "any kinase tested", "method": "Latrunculins B and H (compounds 20 and 14, respectively) were tested in a panel of assays including ApoE secretion, anti-angiogenesis, G2/M, Wnt pathway, insulin secretion, and an array of kinase profiling. The G2/M assays include HeLa cell proliferation, apoptosis, DNA content, and condensation, cyclin B, and phosphor-histone H3. […] Alkaline phosphatases may perhaps be a target of the anti-invasive latrunculin 11."}}, "note": "Read-outs that look alike come from different tables or passages of the source.", "data": [{"smiles": "COc1ccc(CC(=O)N2C(=O)SC[C@H]2[C@@]2(OC)C[C@H]3C[C@@H](CC[C@H](C)/C=C\\C=C\\CC/C(C)=C\\C(=O)O3)O2)cc1", "note": "[Compound 11, 17-O-Methyl-N-(7′-methoxyphenylacetyl)latrunculin A]", "values": [{"measurement": "fold more active against cell invasion than latrunculin A (compound 1)", "setting": "MDA-MB-231 cells", "result": 4.6, "unit": "fold"}, {"measurement": "inhibition at 2 µM", "setting": "[1]", "result": 100, "unit": "%"}, {"measurement": "inhibition at 10 µM", "setting": "[1]", "result": 100, "unit": "%"}, {"measurement": "IC50", "setting": "[1]; read-out: IC50 CD31 in ECFCs", "result": "< 43", "unit": "nM"}, {"measurement": "IC50", "setting": "[2]", "result": 4, "unit": "nM"}, {"measurement": "Wnt/β-catenin signaling", "setting": "β-catenin in C2C12 cells", "result": "strongly inhibited"}, {"measurement": "IC50", "setting": "β-catenin in C2C12 cells; Mus musculus", "result": 7, "unit": "nM"}, {"measurement": "anti-migratory activity", "setting": "MDA-MB-231", "result": "potent anti-migratory"}, {"measurement": "anti-invasive activity against PC-3", "setting": "[3]", "result": "potent anti-invasive activity"}]}, {"smiles": "C/C1=C/C(=O)O[C@@H]2C[C@@H](CC[C@H](C)/C=C\\C=C\\CC1)O[C@@](O)([C@@H]1CSC(=O)N1CO)C2", "note": "[Compound 14, N-Hydroxymethyllatrunculin A]", "values": [{"measurement": "fold more active against cell invasion than latrunculin A (compound 1)", "setting": "MDA-MB-231 cells", "result": 2.1, "unit": "fold"}, {"measurement": "factor of greater activity than compound 1, MDA-MB-231 invasion assay", "setting": "MDA-MB-231 cells; assessed at 1 μM", "result": 2.7}, {"measurement": "number of the 60 cell lines tested with antiproliferative activity", "setting": "[4]; dose of 10 μM", "result": 18}, {"measurement": "log10GI50", "setting": "[4]; five-points dose-response, range over active cell lines", "result": "−7.13 to −7.83"}, {"measurement": "inhibition at 2 µM", "setting": "[1]", "result": 100, "unit": "%"}, {"measurement": "inhibition at 10 µM", "setting": "[1]", "result": 100, "unit": "%"}, {"measurement": "IC50", "setting": "[1]; read-out: IC50 CD31 in ECFCs", "result": 63, "unit": "nM"}, {"measurement": "IC50", "setting": "[1]; read-out: antiangiogenic activity IC50 range", "result": "40 to 820", "unit": "nM"}, {"measurement": "affinity toward kinases", "setting": "array of kinases", "result": "Neither compound 20 nor compound 14 showed affinity toward any kinase tested"}]}]}
